According to patent US20050113366A1 (priority 2000, published 2005):
Structures can show the parent of a compound that is named as a salt. Where two headings read alike, the source gives them in different places.

Tests used:
[1] = test system: slow wave sleep; assay: EEG study of the duration of slow wave sleep in rats after i.p. injection; assay type: in vivo, Male Wistar rats; details: for Duration of slow wave sleep: 3 h EEG recording, mean ± SEM; for Increase of the duration of slow wave sleep: versus NaCl
Text: Male Wistar rats, weighing 200 g at the beginning of the experiment, coming from the Centre d'Elevage Janvier (Route des Chenes-Secs, Le Genest St-Isle, 53940 France) were used for this study.
After eight days of adaptation to the breeding conditions at the Animalerie Centrale de la Faculte de Medecine (11, rue Humann 67084 Strasbourg), these animals were placed in individual cages (Makrolon type cages 3H, 425×266×150) in a standard (7 a.m./7 p.m.) day/night rhythm, with water and food (UAR ref. A04) continually available to them. The animals were then transferred to an experimentation facility on supports capable of receiving 24 cages.
The surgical procedure is the following: after one month of becoming accustomed to the (10 a.m./10 p.m.) day/night cycle, the rats are weighed and then anesthetized with ketamine (Imalgene 500 Merial) at a dose of 150 mg/kg i.p. After having placed the animal in a stereotactic frame (Narishige), a rostrocaudal incision is made using a sterilized scalpel (No. 3 blade, Swann-Morton England).
The parietal bone sutures, Lambda and Bregma, are exposed serve as stereotactic reference (point 0). After having perforated the cranial casing using a dental drill without infringing on the meninges (Minitor Narishige), two stainless steel screws 500 μm in diameter (Magister, 4 rue du Lac 25130 Villers Le Lac) are implanted at the following coordinates: Bregma AP: ±4 mm and ML: ±3 mm.
Two copper wires are soldered with tin to the screws, on one hand, and to the female connector, on the other hand (VP Electronic, Square de la Poteme, 91302 Massy Cedex). The assembly which is realized is then covered with a polymerizing resin (Paladur, Kulzer, Germany).
The implanted rats are then placed in their respective cages. A post-operative period greater than 48 h is complied with before any recording.
All the EEG recordings are made during the first hours of the dark [sic; light] phase (that is, between 10 a.m. and 1 p.m.), which represents the period of awakening and intense activity of the animals.
The rats are placed in a cage made of Plexiglas (170×170×300), and after a 30 min period of becoming accustomed to their new environment, they are recorded continuously for a duration of 3 h after i.p. injection (2 mL/kg) of 0.9% NaCl or the ligand to be studied. The EEG graph is made using an 8-track recorder (Alvar Electronic, 6 rue du Progres, 93511-Montreuil) with a running speed of 0.5 cm/s.
The total durations of slow wave sleep for each animal are evaluated in 20 min sections for the total duration of the 3 h recording (1 cm=2 seconds).
The statistical comparison is made using an analysis of variance test (Anova) followed by a multiple comparison test. […]
The numbers in parentheses correspond to the percentages of slow wave sleep with respect to the total duration of sleep.

[2] = molecular target: GHB receptors (Rattus norvegicus, UniProt P11275); assay: Displacement of 3H-GHB binding on rat brain membranes; parameters: species or system Wistar rats
[3] = in cats; cited from earlier work
[4] = read-out: IC50 (concentration displacing 50% of the reversible binding of 3H-GHB), rat brain membranes, potassium phosphate buffer pH 6.0, 30 min in ice

Sequence of GHB receptors (P11275 whole entry): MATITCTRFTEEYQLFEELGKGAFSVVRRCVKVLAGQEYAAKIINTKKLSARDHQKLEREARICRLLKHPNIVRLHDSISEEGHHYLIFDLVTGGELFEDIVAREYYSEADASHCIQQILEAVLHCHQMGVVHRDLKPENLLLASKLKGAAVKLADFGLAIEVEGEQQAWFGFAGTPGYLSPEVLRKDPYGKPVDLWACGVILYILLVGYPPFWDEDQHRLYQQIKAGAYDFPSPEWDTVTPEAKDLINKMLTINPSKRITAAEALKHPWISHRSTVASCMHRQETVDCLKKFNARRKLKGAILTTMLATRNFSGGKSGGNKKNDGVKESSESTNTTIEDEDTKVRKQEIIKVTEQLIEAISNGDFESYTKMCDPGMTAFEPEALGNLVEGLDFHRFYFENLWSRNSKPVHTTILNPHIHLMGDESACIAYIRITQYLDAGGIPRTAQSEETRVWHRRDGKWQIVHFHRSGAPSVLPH

## O=C(O)CCC(O)c1ccc(Cl)c(Cl)c1 (centres unmarked) [Compound 2, Sodium salt of 4-(3,4 dichlorophenyl)-4-hydroxybutanoic acid]
[1]; 0.28 mmol/kg i.p.
  Percentage of slow wave sleep with respect to the total duration of sleep (in parentheses): 23%
  Duration of slow wave sleep: 53 ± 7 min
  Increase of the duration of slow wave sleep: 42 min

## O=C([O-])CCC(O)c1cc2c3c(cccc3c1)CC2.[Na+] (centres unmarked) [Compound 24, Sodium salt of 4-(1,2-dihydroacenaphthylen-4-yl)-4-hydroxybutanoic acid]
[2]; affinity for the GHB receptor, repeated in Table 4, read-out: IC50
  IC50: 80 nM
[2]; [4]
  IC50: 80 nM
[1]; 0.15 mmol/kg i.p.
  Percentage of slow wave sleep with respect to the total duration of sleep (in parentheses): 23%
  Duration of slow wave sleep: 53 ± 7 min
  Increase of the duration of slow wave sleep: 42 min
[1]; 0.28 mmol/kg i.p.
  Percentage of slow wave sleep with respect to the total duration of sleep (in parentheses): 28%
  Duration of slow wave sleep: 61 ± 8 min
  Increase of the duration of slow wave sleep: 50 min

## O=C(O)CCC(O)c1ccc2c(c1)-c1ccccc1C2 (centres unmarked) [Compound 32, Sodium salt of 4-(9H-fluoren-3-yl)hydroxybutanoic acid]
[2]; [4]
  IC50: 300 nM

## CC1(C)Cc2cc(C(O)CCC(=O)O)ccc2NC1=O (centres unmarked) [Compound 40, Sodium salt of 4-(3,3-dimethyl-2-oxo-1,2,3,4-tetrahydroquinolin-6-yl)-4-hydroxybutanoic acid]
[2]; [4]
  IC50: 1100 nM

## O=C(O)CCCO [GHB, γ-hydroxybutyrate]
[3]
  half-life: approximately one

## Sodium salt of 4-hydroxy-4-(phenoxathiin-2 or 3-yl) butanoic acid isomer B [Compound 29]
[2]; [4]
  IC50: 900 nM

## Sodium salt of 4-hydroxy-4-(phenoxathiin-2 or 3-yl)butanoic acid isomer A [Compound 28]
[2]; [4]
  IC50: 100 nM

## Sodium salts of 4-hydroxy-4-(4-oxo-4,5-dihydro-3H-pyridazo(4,5-b)indol-8 and 6-yl)butanoic acids 8/6 isomer mixture [Compound 33]
[2]; [4]
  IC50: 200 nM
